Laboratory results taken from patent publication EP2739296B1, “PLANT MATERIAL FROM OXYDENDRUM ARBOREUM FOR COSMETIC USE” (Sederma, priority 2011, dated 2013).

What was measured:
Assay type in all cases: cell-based
collagen I = test: Collagen I synthesis by normal human fibroblasts (immuno-labeling); details: positive control, concentration not given; NHF, 7 days; p<0.01
Method: Normal human fibroblasts (NHF) are cultivated in plate MW24 for 24 hours. The cells are in contact or not of test products at various concentrations for 7 days. The synthesis of collagen I is then quantified by immuno-labeling fixed on the layer. Table 7: increase of collagen I on NHF in the presence of the extract of Oxydendrum arboretum cell culture compared with control. (n=4 wells/ 20 photos)

Human melanocytes = test: Melanin synthesis in human melanocytes; details: positive control, concentration not given; 5 days of culture; n=5; p<0.01
Method: Human melanocytes were seeded in 24-well plates. After 24 h of attachment, the cells are in contact with the test products. After 5 days of culture, the layers are rinsed, the total melanins are extracted in sodium hydroxide and assayed spectrophotometrically at 490 nm. For tyrosinase, an identical culture protocol is followed and then the enzyme is extracted from the cells and DOPA oxidase activity is measured spectrophotometrically at 37°C with a solution of L-DOPA to 0.2%. The data are normalized using a viability assay. Table 9: inhibition of melanogenese in the presence of the extract of Oxydendrum arboreum cell culture compared with control. (n=5)

tyrosinase = biological target: T1, tyrosinase (Homo sapiens, UniProt P14679); test: Tyrosinase (DOPA oxidase) activity extracted from human melanocytes; details: positive control, concentration not given; 5 days of culture; n=5; p<0.01
T1 sequence (P14679 19-529): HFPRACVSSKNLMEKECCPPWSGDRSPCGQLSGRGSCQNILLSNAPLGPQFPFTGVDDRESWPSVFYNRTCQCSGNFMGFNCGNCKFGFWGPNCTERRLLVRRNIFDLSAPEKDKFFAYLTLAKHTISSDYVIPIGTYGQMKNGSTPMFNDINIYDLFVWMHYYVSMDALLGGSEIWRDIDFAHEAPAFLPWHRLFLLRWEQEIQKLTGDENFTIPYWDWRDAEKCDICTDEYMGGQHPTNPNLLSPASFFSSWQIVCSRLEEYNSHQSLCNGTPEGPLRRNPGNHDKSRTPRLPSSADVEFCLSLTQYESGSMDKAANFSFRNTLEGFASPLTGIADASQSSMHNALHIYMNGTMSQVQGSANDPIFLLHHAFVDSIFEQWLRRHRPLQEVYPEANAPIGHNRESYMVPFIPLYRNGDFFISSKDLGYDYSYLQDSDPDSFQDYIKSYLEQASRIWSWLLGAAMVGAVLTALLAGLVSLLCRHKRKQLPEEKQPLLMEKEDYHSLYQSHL

SMILES	Collagen I Synthesis % change / control (collagen I)	Melanin (% Change / Control) (Human melanocytes) [%]	Tyrosinase (% Change / Control) (tyrosinase) [%]
O=C1O[C@H]([C@@H](O)CO)C(O)=C1O [Vitamin C]	+236% ; p<0.01	–	–
OC[C@H]1O[C@@H](Oc2ccc(O)cc2)[C@H](O)[C@@H](O)[C@@H]1O [Arbutin]	–	-56	-48
